Like-named read-outs stand apart in the source and are kept apart here.
Biological target: nuclear factor-kappa B (NF-kB)-inducing kinase (NIK) (Homo sapiens (Human), UniProt Q99558)
Test: NIK enzyme inhibition assay (Transcreener ADP, NIK ADP-FP)
Format: biochemical
[1] = purified NIK 0.5 nM, 10 μM ATP, fluorescence polarization, read-out: NIK ADP-FP (Ki μM)

Chain of nuclear factor-kappa B (NF-kB)-inducing kinase (NIK) (Q99558 whole entry): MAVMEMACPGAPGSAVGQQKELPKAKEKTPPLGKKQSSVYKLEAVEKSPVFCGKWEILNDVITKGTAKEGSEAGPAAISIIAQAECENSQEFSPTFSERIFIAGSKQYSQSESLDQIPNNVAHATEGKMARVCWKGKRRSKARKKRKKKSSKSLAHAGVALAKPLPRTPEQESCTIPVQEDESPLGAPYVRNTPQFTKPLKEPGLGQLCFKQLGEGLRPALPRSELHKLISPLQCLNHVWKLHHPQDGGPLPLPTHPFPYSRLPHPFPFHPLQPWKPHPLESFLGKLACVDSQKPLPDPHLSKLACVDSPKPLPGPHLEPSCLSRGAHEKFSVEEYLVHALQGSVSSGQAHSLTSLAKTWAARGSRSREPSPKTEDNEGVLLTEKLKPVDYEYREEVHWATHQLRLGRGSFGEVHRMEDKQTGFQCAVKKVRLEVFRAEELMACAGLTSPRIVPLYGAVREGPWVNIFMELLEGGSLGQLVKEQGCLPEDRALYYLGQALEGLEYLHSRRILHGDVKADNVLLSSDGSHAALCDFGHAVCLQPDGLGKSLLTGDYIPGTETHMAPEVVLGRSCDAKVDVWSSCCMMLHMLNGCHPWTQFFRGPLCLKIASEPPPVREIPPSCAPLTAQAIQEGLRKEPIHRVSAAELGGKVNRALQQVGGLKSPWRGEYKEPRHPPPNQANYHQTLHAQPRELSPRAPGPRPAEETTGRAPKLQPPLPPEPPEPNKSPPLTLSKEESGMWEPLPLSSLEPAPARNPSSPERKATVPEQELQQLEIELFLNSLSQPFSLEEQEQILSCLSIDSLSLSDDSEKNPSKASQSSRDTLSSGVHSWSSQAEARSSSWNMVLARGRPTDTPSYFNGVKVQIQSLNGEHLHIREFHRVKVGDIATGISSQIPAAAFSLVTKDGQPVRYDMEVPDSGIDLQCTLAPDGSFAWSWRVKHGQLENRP

| SMILES | Ki [1] | Ki |
| --- | --- | --- |
| CN1CC[C@@](O)(C#Cc2ccnc(-n3nc(C(N)=O)c4c3CC(C)(C)[C@H](O)C4)c2)C1=O [Compound 9, (5R)-5-hydroxy-1-[4-[2-[(3R)-3-hydroxy-1-methyl-2-oxo-pyrrolidin-3-yl]ethynyl]-2-pyridyl]-6,6-dimethyl-5,7-dihydro-4H-indazole-3-carboxamide] | 33.2 nM | – |
| CN1CC[C@@](O)(C#Cc2cccc(-n3nc(C(N)=O)c4c3CCC[C@@H]4NC(=O)C3CC3)c2)C1=O [Compound 37, (4S)-4-(cyclopropanecarbo-nylamino)-1-[3-[2-[(3R)-3-hydroxy-1-methyl-2-oxo-pyrrolidin-3-yl]ethynyl]phen-yl]-4,5,6,7-tetrahydroindazole-3-carboxamide] | 193 nM | – |
| CN1CC[C@@](O)(C#Cc2cccc(-n3nc(C(N)=O)c4cnncc43)c2)C1=O [Compound 190, 1-[3-[2-[(3R)-3-hydroxy-1-methyl-2-oxo-pyrrolidin-3-yl]ethynyl]phenyl]pyrazolo [3,4-d]pyridazine-3-carboxamide] | – | 6.8 nM |
| CN1CC[C@@](O)(C#Cc2cccc(-n3nc(C(N)=O)c4c3CS(=O)(=O)CC4)c2)C1=O [Compound 68, 1-[3-[2-[(3R)-3-hydroxy-1-methyl-2-oxo-pyrrolidin-3-yl]ethynyl]phenyl]-6,6-dioxo-5,7-dihydro-4H-thiopyra-no[3,4-c]pyrazole-3-carbox-amide] | 237 nM | – |
| CN1CC[C@@](O)(C#Cc2cccc(-n3nc(C(N)=O)c4c3CCNC4)c2)C1=O [Compound 21, 1-[3-[2-[(3R)-3-hydroxy-1-methyl-2-oxo-pyrrolidin-3-yl]ethynyl]phenyl]-4,5,6,7-tetra-hydropyrazolo[4,3-c]pyri-dine-3-carboxamide] | 233 nM | – |
| CN1CC[C@@](O)(C#Cc2cccc(-n3nc(C(N)=O)c4c3C[C@@]3(C)C(C4)C3(F)F)c2)C1=O (stereo partly drawn) [Compound 47, (5aS)-5,5-difluoro-1-[3-[2-[(3R)-3-hydroxy-1-methyl-2-oxo-pyrrolidin-3-yl]ethyn-yl]phenyl]-5a-methyl-4a,6-dihydro-4H-cyclopropa[f] indazole-3-carboxamide] | 22.6 nM | – |
| CN(C)C(=O)C(O)C#Cc1cccc(-n2nc(C(N)=O)c3ccccc32)c1 (stereo not shown) [Compound 163, 1-[3-[4-(dimethyalmino)-3-hydroxy-4-oxo-but-1-ynyl]phenyl]indazole-3-carboxamide] | 250 nM | – |
| CN1C[C@@H](O)[C@@](O)(C#Cc2cccc(-n3nc(C(N)=O)c4ccccc43)c2)C1=O [Compound 126, 1-[3-[2-[(3S,4R)-3,4-dihydroxy-1-methyl-2-oxo-pyrroli-din-3-yl]ethynyl]phenyl]inda-zole-3-carboxamide] | 591 nM | – |
| CN1C[C@H](O)[C@@](O)(C#Cc2cccc(-n3nc(C(N)=O)c4ccccc43)c2)C1=O [Compound 125, 1-[3-[2-[(3S,4S)-3,4-dihydroxy-1-methyl-2-oxo-pyrroli-din-3-yl]ethynyl]phenyl]in-dazole-3-carboxamide] | 19.6 nM | – |
| CN1CC[C@@](O)(C#Cc2cccc(-n3nc(C(N)=O)c4c3[C@@H](O)CC4)c2)C1=O [Compound 168, (6S)-6-hydroxy-1-[3-[2-[(3R)-3-hydroxy-1-methyl-2-oxo-pyrrolidin-3-yl]ethynyl]phenyl]-5,6-dihydro-4H-cyclo-penta[c]pyrazole-3-carbox-amide] | 33.7 nM | – |
| NC(=O)c1nn(-c2cccc(C#C[C@@]3(O)CCCC3=O)c2)c2ccccc12 [Compound 115, 1-[3-[2-[(1S)-1-hydroxy-2-oxo-cyclopentyl]ethynyl]phe-nyl]indazole-3-carboxamide] | 86.1 nM | – |
| Cc1cc([C@](C)(O)C#Cc2ccnc(-n3nc(C(N)=O)cc3C)c2)no1 [Compound 80, 1-[4-[(3R)-3-hydroxy-3-(5-methylisoxazol-3-yl)but-1-ynyl]-2-pyridyl]-5-methyl-pyrazole-3-carboxamide] | 84.5 nM | – |
| CN1CC[C@@](O)(C#Cc2cccc(-n3nc(C(N)=O)c4c3CCC[C@H]4n3cccn3)c2)C1=O [Compound 34, (4R)-1-[3-[2-[(3R)-3-hydroxy-1-methyl-2-oxo-pyrrolidin-3-yl]ethynyl]phenyl]-4-pyrazol-1-yl-4,5,6,7-tetrahydro-indazole-3-carboxamide] | 606 nM | – |
| CN1CC[C@@](O)(C#Cc2ccnc(-n3nc(C(N)=O)c4c3CCC[C@@H]4NC(=O)C3CC3)c2)C1=O [Compound 17, (4S)-4-(cyclopropanecarbo-nylamino)-1-[4-[2-[(3R)-3-hydroxy-1-methyl-2-oxo-pyrrolidin-3-yl]ethynyl]-2-pyridyl]-4,5,6,7-tetrahydroin-dazole-3-carboxamide] | 146 nM | – |
| CN1CC[C@@](O)(C#Cc2cccc(-c3nc(C(N)=O)c4n3CCC4)c2)C1=O [Compound 192, 3-[3-[2-[(3R)-3-hydroxy-1-methyl-2-oxo-pyrrolidin-3-yl]ethynyl]phenyl]-6,7-dihydro-5H-pyrrolo[1,2-c] imidazole-1-carboxamide] | 28.1 nM | – |
| Cc1nc([C@](C)(O)C#Cc2cccc(-n3nc(C(N)=O)c4ccccc43)c2)no1 [Compound 29, 1-[3-[(3R)-3-hydroxy-3-(5-methyl-1,2,4-oxadiazol-3-yl)but-1-ynyl]phenyl]indazole-3-carboxamide] | 36.7 nM | – |
| CN1CC[C@@](O)(C#Cc2cccc(-c3nc(C(N)=O)c4n3CCCC4)c2)C1=O [Compound 84, 3-[3-[2-[(3R)-3-hydroxy-1-methyl-2-oxo-pyrrolidin-3-yl]ethynyl]phenyl]-5,6,7,8-tetra-hydroimidazo[1,5-a]pyri-dine-1-carboxamide] | 33.9 nM | – |
| CN1CC[C@@](O)(C#Cc2cccc(-n3nc(C(N)=O)c4c3CCN([S@@+](C)[O-])C4)c2)C1=O [Compound 123, 1-[3-[2-[(3R)-3-hydroxy-1-methyl-2-oxo-pyrrolidin-3-yl]ethynyl]phenyl]-5-[(R)-methylsulfinyl]-6,7-dihydro-4H-pyrazolo[4,3-c]pyridine-3-carboxamide] | 18 nM | – |
| CN1CC[C@@](O)(C#Cc2cccc(-n3nc(C(N)=O)c4c3C[C@]3(C)C(C4)C3(F)F)c2)C1=O (stereo partly drawn) [Compound 50, (5aR)-5,5-difluoro-1-[3-[2-[(3R)-3-hydroxy-1-methyl-2-oxo-pyrrolidin-3-yl]ethyn-yl]phenyl]-5a-methyl-4a,6-dihydro-4H-cyclopropa[f]inda-zole-3-carboxamide] | 170 nM | – |

The remaining compounds from weak to strong by Ki [1], led by results:

| Ki [1] | SMILES | Ki |
| --- | --- | --- |
| 13.4 nM | CN1CC[C@@](O)(C#Cc2ccnc(-n3nc(C(N)=O)c4c3CC(C)(C)[C@@H](O)C4)c2)C1=O [Compound 11, (5S)-5-hydroxy-1-[4-[2-[(3R)-3-hydroxy-1-methyl-2-oxo-pyrrolidin-3-yl]ethynyl]-2-pyridyl]-6,6-dimethyl-5,7-dihydro-4H-indazole-3-carboxamide] | – |
| 10.8 nM | Cc1cc(C(N)=O)nn1-c1cc(C#C[C@]2(O)CCN(C)C2=O)ccn1 [Compound 79, 1-[4-[2-[(3R)-3-hydroxy-1-methyl-2-oxo-pyrrolidin-3-yl]ethynyl]-2-pyridyl]-5-meth-yl-pyrazole-3-carboxamide] | – |
| 8.12 nM | NC(=O)c1nn(-c2cccc(C#C[C@]3(O)CCOC3=O)c2)c2ccccc12 [Compound 171, 1-[3-[2-[(3R)-3-hydroxy-2-oxo-tetrahydrofuran-3-yl]eth-ynyl]phenyl]indazole-3-carbox-amide] | – |
| 7.62 nM | CN1CC[C@@](O)(C#Cc2cccc(-n3nc(C(N)=O)c4c3CCCC4(F)F)c2)C1=O [Compound 24, 4,4-difluoro-1-[3-[2-[(3R)-3-hydroxy-1-methyl-2-oxo-pyrrolidin-3-yl]ethynyl]phe-nyl]-6,7-dihydro-5H-indazole-3-carboxamide] | – |
| 4.46 nM | CN1CC[C@@](O)(C#Cc2ccnc(-n3nc(C(N)=O)c4c3C[C@H](O)CC4)c2)C1=O [Compound 61, (6R)-6-hydroxy-1-[4-[2-[(3R)-3-hydroxy-1-methyl-2-oxo-pyrrolidin-3-yl]ethynyl]-2-pyridyl]-4,5,6,7-tetrahydro-indazole-3-carboxamide] | – |
| 3.27 nM | CN(Cc1ccc2c(c1)c(C(N)=O)nn2-c1cc(C#C[C@]2(O)CCN(C)C2=O)ccn1)C(=O)CCCN [Compound 141, 5-[[4-aminobutanoyl(meth-yl)amino]methyl]-1-[4-[2-[(3R)-3-hydroxy-1-methyl-2-oxo-pyrrolidin-3-yl]ethynyl]-2-pyridyl]indazole-3-carbox-amide] | – |
| 1.51 nM | CN1CC[C@@](O)(C#Cc2cccc(-n3nc(C(N)=O)c4cc(-c5ncc[nH]5)ccc43)c2)C1=O [Compound 182, 1-[3-[2-[(3R)-3-hydroxy-1-methyl-2-oxo-pyrrolidin-3-yl]ethynyl]phenyl]-5-(1H-imidazol-2-yl)indazole-3-carboxamide] | – |
| 0.29 nM | CN1CC[C@@](O)(C#Cc2cccc(-n3nc(C(N)=O)c4c3NCCC4)c2)C1=O [Compound 198, 1-[3-[2-[(3R)-3-hydroxy-1-methyl-2-oxo-pyrrolidin-3-yl]ethynyl]phenyl]-4,5,6,7-tetrahydropyrazolo[3,4-b]pyridine-3-carboxamide] | – |
| 0.19 nM | CN1CC[C@@](O)(C#Cc2cccc(-n3nc(C(N)=O)c4cnc(N5CC[C@@H](O)C5)cc43)c2)C1=O [Compound 138, 1-[3-[2-[(3R)-3-hydroxy-1-methyl-2-oxo-pyrrolidin-3-yl]ethynyl]phenyl]-6-[(3R)-3-hydroxypyrrolidin-1-yl]pyra-zolo[4,3-c]pyridine-3-carbox-amide] | – |
| 0.05 nM | C[C@@H]1Cc2c(C(N)=O)nn(-c3cccc(C#C[C@]4(O)CCN(C)C4=O)c3)c2C1 [Compound 194, (5R)-1-[3-[2-[(3R)-3-hydroxy-1-methyl-2-oxo-pyrrolidin-3-yl]ethynyl]phenyl]-5-methyl-5,6-dihydro-4H-cyclopenta[c]pyrazole-3-carboxamide] | – |
| 0.05 nM | Cc1cn(-c2ccc3c(c2)c(C(N)=O)nn3-c2cccc(C#C[C@]3(O)CCN(C)C3=O)c2)cn1 [Compound 106, 1-[3-[2-[(3R)-3-hydroxy-1-methyl-2-oxo-pyrrolidin-3-yl]ethynyl]phenyl]-5-(4-meth-ylimidazol-1-yl)indazole-3-carboxamide] | – |
| 0.05 nM | CNc1nc2c(s1)c(C(N)=O)nn2-c1cccc(C#C[C@]2(O)CCN(C)C2=O)c1 [Compound 196, 1-[3-[2-[(3R)-3-hydroxy-1-methyl-2-oxo-pyrrolidin-3-yl]ethynyl]phenyl]-5-(methylamino)pyrazolo[3,4-d] thiazole-3-carboxamide] | – |
